Data on 1 compound can be found in publication PMC5374710, “Discovery of the first dual GSK3β inhibitor/Nrf2 inducer. A new multitarget therapeutic strategy for Alzheimer’s disease” (Scientific Reports, 2017).

SMILES strings stand for the structures.

The test system of test [1] is TNFα. Kind of test: TNFα release induced by LPS in mixed glial cells (ELISA). The class given is cell-based, rat. The note with it: LPS 1 μg/mL. Here is the method:
(§1) TNFα is considered one of the most important pro-inflammatory cytokines. […] The production of TNFα induced by LPS was reduced by 33% at 10 μM and by 50% at 30 μM. […] To further confirm the anti-inflammatory potential of compound 5c we measured the expression of thre NOX2 enzyme, since this isoform has been widely described as being specific tomicroglial cells. As depicted in Fig. 6F, LPS (1 μg/mL) stimulation of primary glial cultures during 24 h increased the expression of NOX2 by 65.3% (p < 0.01) compared to basal conditions.
(§2) Figure 6 Nitrites (A), TNFα (B), iNOS (C) and NOX activity (E) blockade (D) and NOX2 production (F) by 5c in primary glial cultures stimulated with LPS (1 μg/mL), HO-1 expression induced by this compound after 24 h. […] NOX activity was measured after 4 h co-treatment with LPS and compound 5c. […]
Tumor necrosis factor-alpha (TNFα) concentrations were measured by specific quantitative sandwich ELISA kits (Preprotech, R&D Systems-bioNova, Madrid, Spain) following manufacturer instructions. TNFα levels in supernatant samples, obtained after treatments with culture media (Basal), LPS or LPS co-incubated with increasing concentrations of compound 5c, were measured following manufacturer instructions. […] Light absorption was measured in a microplate reader (Labtech, Offenburg, Germany). […]
On the technique in general: In an ELISA, binding on a coated surface is turned into a signal by an enzyme label.

For test [2], the system named is iNOS. Kind of test: iNOS expression in LPS-stimulated glial cultures (western blot). The note with it: 30 μM, LPS 1 μg/mL. In kind it is cell-based, rat. Here is the method: as §1, §2
After treatment, mixed glial cells were washed with cold PBS and lysed in 100 μl ice-cold lysis buffer (1% Nonident P-40, 10% glycerol, 137 mM NaCl, 20 mM Tris HCl pH 7.5, 1 μg/ml leupeptin, 1 mM phenylmethylsulfonyl fluoride, 20 mM NaF, 1 mM sodium pyrophosphate, and 1 mM Na3VO4). […] Peroxidase-conjugated secondary antibodies (1:10000) were used to detect proteins by enhanced chemiluminescence detected by Advance Western-blotting Detection Kit (GE Healthcare, Barcelona, Spain). […]
In general terms: In western blotting, separated proteins are transferred to a membrane and probed.

For `COc1cccc(C2C(C#N)=C(N)Oc3n[nH]c(C)c32)c1` (stereo not drawn) [Compound 5c, 6-Amino-4-(3-methoxyphenyl)-3-methyl-2,4-dihydropyrano[2,3-c]pyrazole-5-carbonitrile], the “Reduction of TNFα production induced by LPS” value in test [1] (10 μM) came out at 33%; in test [1] (30 μM) it was 50%. Besides, the “Reduction of iNOS expression” value in test [2] is given as “almost completely”.
